Results published in patent US10399940B2, “Substituted pyrrolidines and methods of use” (AbbVie S.à.r.l., priority 2016, dated 2019).
Like-named read-outs stand apart in the source and are kept apart here.

Molecular target: T1, F508delCFTR (Homo sapiens, UniProt P13569, DEL508-508)
T1 construct: expressed in transfected cells; host or cells: CFBE41o- (human lung derived epithelial cell line), doxycycline-inducible expression
Assay: Cell Surface Expression-Horse Radish Peroxidase (CSE-HRP) assay
Type: cell-based
Details: CFBE41o-F508delCFTR-HRP cells; for Maximum % activity (with co-corrector): with co-corrector (2 μM); for Maximum % activity (with co-corrector) / Maximum % activity (without co-corrector): normalized to on-plate positive control, highest concentration 20 μM
Summary of the method: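 Surface F508delCFTR-HRP was read by luminol luminescence after 18–24 h compound exposure at 33 °C, without or with 2 μM co-corrector. Doses were eight 3-fold steps from 20 μM, in doxycycline-induced (0.5 μg/mL, 72 h) CFBE41o- cells. % activity was scaled to the on-plate 2 μM positive control minus DMSO; EC50 came from a variable-slope sigmoid fit.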

[1] = test compound without co-corrector, 18-24 hours at 33° C., read-out: EC50 (without co-corrector)
[2] = with co-corrector (2 μM of 3-[(2R,4R)-4-({[1-(2,2-difluoro-1,3-benzodioxol-5-yl)cyclopropyl]carbonyl}amino)-7-methoxy-3,4-dihydro-2H-chromen-2-yl]benzoic acid), read-out: EC50 (with co-corrector)

T1 sequence (P13569 with tags, fused parts or gaps DEL508-508): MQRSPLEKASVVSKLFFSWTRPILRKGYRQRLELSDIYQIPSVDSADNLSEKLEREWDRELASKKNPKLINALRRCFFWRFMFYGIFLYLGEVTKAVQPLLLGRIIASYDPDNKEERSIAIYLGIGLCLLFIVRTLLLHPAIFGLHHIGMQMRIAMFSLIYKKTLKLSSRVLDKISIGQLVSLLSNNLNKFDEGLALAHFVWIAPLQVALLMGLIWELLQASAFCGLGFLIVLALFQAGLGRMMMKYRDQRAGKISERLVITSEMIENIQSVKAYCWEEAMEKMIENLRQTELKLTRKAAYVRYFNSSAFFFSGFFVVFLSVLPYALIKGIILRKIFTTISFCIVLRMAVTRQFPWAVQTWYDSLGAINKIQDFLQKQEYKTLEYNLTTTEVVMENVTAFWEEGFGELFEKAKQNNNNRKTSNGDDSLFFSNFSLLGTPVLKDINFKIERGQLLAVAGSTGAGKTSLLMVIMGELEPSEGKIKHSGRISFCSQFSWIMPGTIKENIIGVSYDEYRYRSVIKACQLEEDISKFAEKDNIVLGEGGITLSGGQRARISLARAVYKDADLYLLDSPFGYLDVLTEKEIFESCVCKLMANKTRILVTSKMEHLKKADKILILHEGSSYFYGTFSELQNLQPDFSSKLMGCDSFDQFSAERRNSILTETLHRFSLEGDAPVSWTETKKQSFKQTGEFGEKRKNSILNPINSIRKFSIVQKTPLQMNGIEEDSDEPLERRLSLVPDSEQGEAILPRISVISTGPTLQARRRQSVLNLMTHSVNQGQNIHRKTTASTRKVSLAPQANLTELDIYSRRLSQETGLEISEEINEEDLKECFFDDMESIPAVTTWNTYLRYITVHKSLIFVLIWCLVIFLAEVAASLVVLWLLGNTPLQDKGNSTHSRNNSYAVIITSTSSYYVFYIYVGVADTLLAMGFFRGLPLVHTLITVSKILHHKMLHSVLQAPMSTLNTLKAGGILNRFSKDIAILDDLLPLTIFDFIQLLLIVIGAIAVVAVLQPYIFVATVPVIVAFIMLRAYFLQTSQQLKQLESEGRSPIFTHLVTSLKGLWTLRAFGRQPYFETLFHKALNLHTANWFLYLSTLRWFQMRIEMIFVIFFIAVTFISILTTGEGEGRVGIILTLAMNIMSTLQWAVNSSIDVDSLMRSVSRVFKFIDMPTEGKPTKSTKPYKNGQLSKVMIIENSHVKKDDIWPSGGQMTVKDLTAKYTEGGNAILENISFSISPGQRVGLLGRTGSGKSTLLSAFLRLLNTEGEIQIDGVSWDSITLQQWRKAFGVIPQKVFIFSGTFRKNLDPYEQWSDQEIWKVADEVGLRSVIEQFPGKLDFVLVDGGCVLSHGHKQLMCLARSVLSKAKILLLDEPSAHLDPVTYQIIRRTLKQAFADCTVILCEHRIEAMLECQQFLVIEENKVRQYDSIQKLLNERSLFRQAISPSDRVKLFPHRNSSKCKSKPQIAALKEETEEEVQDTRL

Structure (SMILES) | EC50 [1] [nM] | EC50 [2] [nM] | Maximum % activity (with co-corrector) | Maximum % activity (without co-corrector)
COc1ccc(C(C)(C)C)cc1CO[C@H]1[C@H](C(C)(C)C)[C@@H](C(=O)O)N(C(=O)[C@@H]2CCCO2)[C@H]1c1ccccc1Br [Example 162, (2S,3R,4S,5S)-5-(2-bromophenyl)-3-tert-butyl-4-[(5-tert-butyl-2-methoxyphenyl)methoxy]-1-[(2S)-oxolane-2-carbonyl]pyrrolidine-2-carboxylic acid] | 1000 to 10000 | < 1000 | +++ (≥350) | +++ (≥200)
COc1ncc(C(F)(F)F)cc1CO[C@@H]1[C@H](C(C)(C)C)[C@@H](C(=O)O)N(C(=O)C2CCCC2)[C@H]1c1cccnc1OC(C)C [Example 163, (2S,3R,4R,5S)-3-tert-butyl-1-(cyclopentanecarbonyl)-4-{[2-methoxy-5-(trifluoromethyl)pyridin-3-yl]methoxy}-5-{2-[(propan-2-yl)oxy]pyridin-3-yl}pyrrolidine-2-carboxylic acid] | > 10000 | > 10000 | + (<150) | + (<100)
COc1ncc(C(F)(F)F)cc1CO[C@@H]1[C@H](C(C)(C)C)[C@@H](C(=O)O)N(C(=O)C2CCCCC2)[C@H]1c1cccnc1OC(C)C [Example 164, (2S,3R,4R,5S)-3-tert-butyl-1-(cyclohexanecarbonyl)-4-{[2-methoxy-5-(trifluoromethyl)pyridin-3-yl]methoxy}-5-{2-[(propan-2-yl)oxy]pyridin-3-yl}pyrrolidine-2-carboxylic acid] | > 10000 | > 10000 | + (<150) | + (<100)
COc1ncc(C2CCC2)cc1CO[C@H]1[C@H](C(C)(C)C)[C@@H](C(=O)O)N(C(=O)[C@@H]2CCCO2)[C@H]1c1ccccc1C(F)F [Example 165, (2S,3R,4S,5S)-3-tert-butyl-4-[(5-cyclobutyl-2-methoxypyridin-3-yl)methoxy]-5-[2-(difluoromethyl)phenyl]-1-[(2S)-oxolane-2-carbonyl]pyrrolidine-2-carboxylic acid] | 1000 to 10000 | 1000 to 10000 | +++ (≥350) | ++ (≥100 and <200)
COc1ncc(C2CCC2)cc1CO[C@@H]1[C@H](C(C)(C)C)[C@@H](C(=O)O)N(C(=O)OC(C)C)[C@H]1c1ccccc1Br [Example 166, (2S,3R,4R,5S)-5-(2-bromophenyl)-3-tert-butyl-4-[(5-cyclobutyl-2-methoxypyridin-3-yl)methoxy]-1-{[(propan-2-yl)oxy]carbonyl}pyrrolidine-2-carboxylic acid] | 1000 to 10000 | 1000 to 10000 | +++ (≥350) | + (<100)
COc1ncc(C(F)(F)F)cc1CO[C@H]1[C@H](C(C)(C)C)[C@@H](C(=O)O)N(C(=O)OC(C)C)[C@H]1c1c(F)cccc1F [Example 167, (2S,3R,4S,5S)-3-tert-butyl-5-(2,6-difluorophenyl)-4-{[2-methoxy-5-(trifluoromethyl)pyridin-3-yl]methoxy}-1-{[(propan-2-yl)oxy]carbonyl}pyrrolidine-2-carboxylic acid] | 1000 to 10000 | 1000 to 10000 | ++ (≥150 and <350) | + (<100)
COc1ncc(C2CCC2)cc1CO[C@H]1[C@H](C(C)(C)C)[C@@H](C(=O)O)N(C(=O)OC(C)C)[C@H]1c1ccccc1C1CC1 [Example 168, (2S,3R,4S,5S)-3-tert-butyl-4-[(5-cyclobutyl-2-methoxypyridin-3-yl)methoxy]-5-(2-cyclopropylphenyl)-1-{[(propan-2-yl)oxy]carbonyl}pyrrolidine-2-carboxylic acid] | 1000 to 10000 | 1000 to 10000 | +++ (≥350) | ++ (≥100 and <200)
COc1ncc(C2CCC2)cc1CO[C@H]1[C@H](C(C)(C)C)[C@@H](C(=O)O)N(C(=O)C2CCCCC2)[C@H]1c1cccnc1OC(C)C [Example 169, (2S,3R,4S,5S)-3-tert-butyl-4-[(5-cyclobutyl-2-methoxypyridin-3-yl)methoxy]-1-(cyclohexanecarbonyl)-5-{2-[(propan-2-yl)oxy]pyridin-3-yl}pyrrolidine-2-carboxylic acid] | 1000 to 10000 | 1000 to 10000 | +++ (≥350) | +++ (≥200)
COc1ncc(C2CCC2)cc1CO[C@H]1[C@H](C(C)(C)C)[C@@H](C(=O)O)N(C(=O)[C@@H]2CCCCO2)[C@H]1c1ccccc1C [Example 170, (2S,3R,4S,5S)-3-tert-butyl-4-[(5-cyclobutyl-2-methoxypyridin-3-yl)methoxy]-5-(2-methylphenyl)-1-[(2S)-oxane-2-carbonyl]pyrrolidine-2-carboxylic acid] | 1000 to 10000 | < 1000 | +++ (≥350) | +++ (≥200)
COc1ncc(C2CCC2)cc1CO[C@H]1[C@H](C(C)(C)C)[C@@H](C(=O)O)N(C(=O)[C@@H]2CCCCO2)[C@H]1c1ccccc1C1CC1 [Example 171, (2S,3R,4S,5S)-3-tert-butyl-4-[(5-cyclobutyl-2-methoxypyridin-3-yl)methoxy]-5-(2-cyclopropylphenyl)-1-[(2S)-oxane-2-carbonyl]pyrrolidine-2-carboxylic acid] | 1000 to 10000 | 1000 to 10000 | +++ (≥350) | +++ (≥200)
COc1ccc(C(C)(C)C)cc1CO[C@H]1[C@H](C(C)(C)C)[C@@H](C(=O)O)N(C(=O)[C@@H]2CCCO2)[C@H]1c1ccccc1C1CC1 [Example 172, (2S,3R,4S,5S)-3-tert-butyl-4-[(5-tert-butyl-2-methoxyphenyl)methoxy]-5-(2-cyclopropylphenyl)-1-[(2S)-oxolane-2-carbonyl]pyrrolidine-2-carboxylic acid] | 1000 to 10000 | 1000 to 10000 | +++ (≥350) | +++ (≥200)
COc1ncc(Br)cc1CO[C@H]1[C@H](C(C)(C)C)[C@@H](C(=O)O)N(C(=O)[C@@H]2CCCO2)[C@H]1c1ccccc1C1CC1 [Example 173, (2S,3R,4S,5S)-4-[(5-bromo-2-methoxypyridin-3-yl)methoxy]-3-tert-butyl-5-(2-cyclopropylphenyl)-1-[(2S)-oxolane-2-carbonyl]pyrrolidine-2-carboxylic acid] | 1000 to 10000 | 1000 to 10000 | +++ (≥350) | +++ (≥200)
COc1ccc(C(F)(F)F)cc1CO[C@H]1[C@H](C(C)(C)C)[C@@H](C(=O)O)N(C(=O)[C@@H]2CCCCO2)[C@H]1c1ccccc1C [Example 174, (2S,3R,4S,5S)-3-tert-butyl-4-{[2-methoxy-5-(trifluoromethyl)phenyl]methoxy}-5-(2-methylphenyl)-1-[(2S)-oxane-2-carbonyl]pyrrolidine-2-carboxylic acid] | < 1000 | < 1000 | +++ (≥350) | +++ (≥200)
COc1cc(C(F)(F)F)ccc1CO[C@H]1[C@H](C(C)(C)C)[C@@H](C(=O)O)N(C(=O)[C@@H]2CCCCO2)[C@H]1c1ccccc1C [Example 175, (2S,3R,4S,5S)-3-tert-butyl-4-{[2-methoxy-4-(trifluoromethyl)phenyl]methoxy}-5-(2-methylphenyl)-1-[(2S)-oxane-2-carbonyl]pyrrolidine-2-carboxylic acid] | 1000 to 10000 | < 1000 | +++ (≥350) | +++ (≥200)
COc1ncc(C2CCC2)cc1CO[C@H]1[C@H](C(C)(C)C)[C@@H](C(=O)O)N(C(=O)[C@@H]2CCCCO2)[C@H]1c1ccccc1C(C)C [Example 176, (2S,3R,4S,5S)-3-tert-butyl-4-[(5-cyclobutyl-2-methoxypyridin-3-yl)methoxy]-1-[(2S)-oxane-2-carbonyl]-5-[2-(propan-2-yl)phenyl]pyrrolidine-2-carboxylic acid] | 1000 to 10000 | < 1000 | +++ (≥350) | +++ (≥200)
COc1ncc(C(F)(F)F)cc1CO[C@H]1[C@H](C(C)(C)C)[C@@H](C(=O)O)N(C(=O)[C@@H]2CCCCO2)[C@H]1c1ccccc1Br [Example 178, (2S,3R,4S,5S)-5-(2-bromophenyl)-3-tert-butyl-4-{[2-methoxy-5-(trifluoromethyl)pyridin-3-yl]methoxy}-1-[(2S)-oxane-2-carbonyl]pyrrolidine-2-carboxylic acid] | 1000 to 10000 | 1000 to 10000 | +++ (≥350) | ++ (≥100 and <200)
CCc1ccccc1[C@H]1[C@@H](OCc2cc(C(F)(F)F)cnc2OC)[C@H](C(C)(C)C)[C@@H](C(=O)O)N1C(=O)[C@@H]1CCCCO1 [Example 179, (2S,3R,4S,5S)-3-tert-butyl-5-(2-ethylphenyl)-4-{[2-methoxy-5-(trifluoromethyl)pyridin-3-yl]methoxy}-1-[(2S)-oxane-2-carbonyl]pyrrolidine-2-carboxylic acid] | < 1000 | < 1000 | +++ (≥350) | +++ (≥200)
